Experimental data: publication PMC7748245, “Identification and Optimization of a Series of 8-Hydroxy Naphthyridines with Potent In Vitro Antileishmanial Activity: Initial SAR and Assessment of In Vivo Activity” (Journal of Medicinal Chemistry, 2020)
≈ marks a conversion by molar mass, not a printed value. Read-outs that look alike come from different tables or passages of the source.

Legend:
L. donovani amastigotes = test: Intramacrophage L. donovani assay (Ld InMac); assay type: cell-based, Leishmania donovani; conditions: for IC50 / EC50: Leishmania donovani; for IC50: read-out: LdInMac pIC50 (converted); for Ld InMac (pEC50) / EC50: L. donovani amastigotes in THP-1 cells, 96 h compound exposure; for loss in potency compared to 1: Ld InMac; for EC50: THP-1, 96 h, read-out: Ld InMac (pEC50) (converted)
Protocol: (§1) This assay was conducted as previously described,[8] except for compound exposure time, which was 96 h instead of 72 h.

THP-1 cells = test: THP-1 host cell toxicity readout of the intramacrophage assay; assay type: cell-based, human; conditions: for IC50: Homo sapiens; for THP-1 (pEC50): human THP-1 host cells
Protocol: as §1

[1] = Mouse liver microsomal intrinsic clearance; assay type: in vitro ADME; conditions: for Cli (mouse liver microsomal intrinsic clearance): mouse liver microsomes; for Cli (mouse, ml/min/g): supplement sheet
Protocol: (§2) These assays were conducted as previously described.[23]

[2] = Kinetic aqueous solubility; assay type: physicochemical; conditions: kinetic; read-out: Aq Solubility (kinetic aqueous solubility)
Protocol: as §2

Chrom Log D pH7.4 = assay type: physicochemical; conditions: for ChromLogDpH7.4: pH 7.4; for ChromLogD: supplement sheet
Protocol: This assay was conducted as previously described.[11]

[3] = THP-1, supplement sheet, read-out: THP1 pIC50 (converted)

Compound | IC50 (L. donovani amastigotes; supplement sheet) [µM] | IC50 (THP-1 cells; [3]) [µM] | THP-1 (pEC50) (THP-1 cells) | LdInMac pIC50 (L. donovani amastigotes; supplement sheet) | THP1 pIC50 (THP-1 cells; supplement sheet) | Cli (mouse liver microsomal intrinsic clearance) [1] [mL/min/g] | Cli (mouse, ml/min/g) [1] [mL/min/g] | solubility kinetic [2] [µM] | other results
O=C(NCc1ccc(Cl)cc1)c1ccc2cccnc2c1O [Compound 20] | 15.8 | 6.31 | toxic to the host THP-1 cells |  |  |  |  |  | 
Cc1n[nH]c(-c2nc(N3CCCC3=O)c3cccnc3c2O)n1 [Compound 12, 1-(8-Hydroxy-7-(3-methyl-1H-1,2,4-triazol-5-yl)-1,6-naphthyridin-5-yl)pyrrolidin-2-one] |  |  | <4.3 | <4.3 | <4.3 | <0.5 | <0.5 | 109 (≈ 33.8 µg/mL) | 
O=C1CCCN1Cc1n[nH]c(-c2ncc3cccnc3c2O)n1 [Compound 6, 1-((5-(8-Hydroxy-1,6-naphthyridin-7-yl)-1H-1,2,4-triazol-3-yl)methyl)pyrrolidin-2-one] | > 50.1 | > 50.1 |  |  |  | <0.5 | <0.5 |  | 
COc1ccccc1-c1nc(-c2nc(C)n[nH]2)c(OC)c2ncccc12 [Compound 18] | 2.51 | > 50.1 |  |  |  |  |  |  | 
Cc1n[nH]c(-c2ncc3cccnc3c2O)n1 [Compound 4, 7-(3-Methyl-1H-1,2,4-triazol-5-yl)-1,6-naphthyridin-8-ol] | > 50.1 | > 50.1 |  |  |  |  |  |  | 
N-(Cyclopropylmethyl)-8-hydroxy-1,6-naphthyridine-7-carboxamide [Compound 29] |  |  | <4.3 | 5.9 | <4.3 | 13 | 13 |  | Ld InMac (pEC50) (L. donovani amastigotes): 5.9; ChromLogDpH7.4 (Chrom Log D pH7.4): 3.3; ChromLogD (Chrom Log D pH7.4): 3.3
Oc1c(-c2nc(C(O)c3ccccc3)n[nH]2)ncc2cccnc12 (centres unmarked) [Compound 3, 7-(3-(Hydroxy(phenyl)methyl)-1H-1,2,4-triazol-5-yl)-1,6-naphthyridin-8-ol] | 5.01 | > 50.1 |  |  |  |  |  |  | loss in potency compared to 1 (L. donovani amastigotes): ~10 fold
N-(4-Chlorobenzyl)-8-hydroxy-5-morpholino-1,6-naphthyridine-7-carboxamide [Compound 32] |  |  | <4.3 | <4.3 | <4.3 | 24 | 24 | 219 | Ld InMac (pEC50) (L. donovani amastigotes): <4.3
5-(Dimethylamino)-7-(3-methyl-1H-1,2,4-triazol-5-yl)-1,6-naphthyridin-8-ol [Compound 9] |  |  | <4.3 | 4.8 | <4.3 | 14 | 14 | >250 | ChromLogDpH7.4 (Chrom Log D pH7.4): -0.6; ChromLogD (Chrom Log D pH7.4): -0.6
Oc1c(-c2nc(CN3CCOCC3)n[nH]2)ncc2cccnc12 [Compound 5, 7-(3-(Morpholinomethyl)-1H-1,2,4-triazol-5-yl)-1,6-naphthyridin-8-ol] | 31.6 | > 50.1 |  |  |  |  |  |  | EC50 (L. donovani amastigotes): 31.6 µM
O=C(NCc1ccc(Cl)cc1)c1ncc2ccccc2c1O [Compound 21] | > 50.1 | > 50.1 |  |  |  |  |  |  | 
Oc1c(-c2nnc(Cc3ccc(F)cc3)[nH]2)ncc2cccnc12 [Compound 2] | 2.51 | 39.8 |  |  |  |  |  |  | loss in potency compared to 1 (L. donovani amastigotes): ~10 fold
7-(3-Methyl-1H-1,2,4-triazol-5-yl)-5-(2-(trifluoromethyl)phenyl)-1,6-naphthyridin-8-ol [Compound 15] |  |  | <4.3 | 7 | <4.3 | 1.4 | 1.4 | >250 | Ld InMac (pEC50) (L. donovani amastigotes): 7.0; ChromLogDpH7.4 (Chrom Log D pH7.4): 4.3; ChromLogD (Chrom Log D pH7.4): 4.3
O=C(NCc1ccc(Cl)cc1)c1ncc2cccnc2c1O [Compound 7, N-(4-Chlorobenzyl)-8-hydroxy-1,6-naphthyridine-7-carboxamide] | 0.501 | > 50.1 |  |  |  |  |  |  | EC50 (L. donovani amastigotes): 0.501 µM
COc1ccc(CNC(=O)c2ncc3cccnc3c2O)cc1 [Compound 27, 8-Hydroxy-N-(4-methoxybenzyl)-1,6-naphthyridine-7-carboxamide] | 0.501 | > 50.1 |  |  |  |  |  |  | Ld InMac (pEC50) (L. donovani amastigotes): 6.3; EC50 (L. donovani amastigotes): < 1 µM
O=C(NCc1ccc(F)cc1)c1nc(N2CCCCS2(=O)=O)c2cccnc2c1O [Compound 30, N-(4-Fluorobenzyl)-5-(1,1-dioxido-1,2-thiazinan-2-yl)-8-hydroxy-1,6-naphthyridine-7-carboxamide, reference compound] |  |  | 4.5 | <4.3 | 4.5 | 2.0 | 2 | > 250 | 
2-(8-Hydroxy-7-(3-methyl-1H-1,2,4-triazol-5-yl)-1,6-naphthyridin-5-yl)-1,2-thiazinane 1,1-dioxide [Compound 13] |  |  | <4.3 | <4.3 | <4.3 | 0.6 | 0.6 | 250 | ChromLogDpH7.4 (Chrom Log D pH7.4): 1.5; ChromLogD (Chrom Log D pH7.4): 1.5
O=C(NCc1ccc(Cl)cc1)c1nc(NC2CCOCC2)c2cccnc2c1O [Compound 31, N-(4-Chlorobenzyl)-8-hydroxy-5-((tetrahydro-2H-pyran-4-yl)amino)-1,6-naphthyridine-7-carboxamide] |  |  | <4.3 | 5.3 | <4.3 | 2.2 | 2.2 | >250 | Ld InMac (pEC50) (L. donovani amastigotes): 5.3; ChromLogDpH7.4 (Chrom Log D pH7.4): 5.3; ChromLogD (Chrom Log D pH7.4): 5.3
Oc1c(-c2nnc(Cc3ccc(Cl)cc3)[nH]2)ncc2cccnc12 [Compound 1] | 0.316 | 31.6 |  |  |  |  |  |  | EC50 (L. donovani amastigotes): 0.316 µM; selectivity over the human THP-1 cell line (L. donovani amastigotes; parasite vs THP-1 pEC50): ~100 fold
Cc1n[nH]c(-c2cc3ncccc3c(-c3ccccc3)n2)n1 [Compound 17] | > 50.1 | > 50.1 |  |  |  |  |  |  | 
COc1ccc(CNC(=O)c2nn(C)c3cccnc3c2=O)cc1 [Compound 23, N-(4-Methoxybenzyl)-1-methyl-4-oxo-1,4-dihydropyrido[3,2-c]pyridazine-3-carboxamide] | > 50.1 | > 50.1 |  |  |  |  |  |  | 
CNc1nc(-c2nc(C)n[nH]2)c(O)c2ncccc12 [Compound 8, 7-(3-Methyl-1H-1,2,4-triazol-5-yl)-5-(methylamino)-1,6-naphthyridin-8-ol] |  |  | <4.3 | <4.3 | <4.3 | 3.1 | 3.1 | >250 | ChromLogDpH7.4 (Chrom Log D pH7.4): -0.2; ChromLogD (Chrom Log D pH7.4): -0.2
N-(Cyclopropylmethyl)-8-hydroxy-5-(2-methoxyphenyl)-1,6-naphthyridine-7-carboxamide [Compound 33] |  |  | <4.3 | 5.7 | <4.3 | 8 | 8 | >250 | Ld InMac (pEC50) (L. donovani amastigotes): 5.7
Cc1nnc(C(=O)NC(C)(C)c2nc(C(=O)NCc3ccc(F)cc3)c(O)c(=O)n2C)o1 [Compound 24, Raltegravir, reference compound] |  |  |  |  |  |  |  |  | IC50 (L. donovani amastigotes): > 50.1 µM; IC50 (THP-1 cells; THP-1, read-out: THP1 pIC50 (converted)): > 50.1 µM
Cc1n[nH]c(-c2nc(N3CCOCC3)c3cccnc3c2O)n1 [Compound 11, 7-(3-Methyl-1H-1,2,4-triazol-5-yl)-5-morpholino-1,6-naphthyridin-8-ol] |  |  | <4.3 | 5 | <4.3 | 3.1 | 3.1 | >250 | ChromLogDpH7.4 (Chrom Log D pH7.4): 1.8; ChromLogD (Chrom Log D pH7.4): 1.8
(R)-N-(1-(4-Fluorophenyl)ethyl)-1-methyl-4-oxo-1,4-dihydro-1,5-naphthyridine-3-carboxamide [Compound 22] |  |  | <4.3 | <4.3 | <4.3 | 0.7 | 0.7 | >250 | 
COc1ccccc1-c1nc(-c2nnc(C)o2)c(O)c2ncccc12 [Compound 19, 5-(2-Methoxyphenyl)-7-(5-methyl-1,3,4-oxadiazol-2-yl)-1,6-naphthyridin-8-ol] | > 50.1 | > 50.1 |  |  |  | <0.5 | <0.5 |  | 
Cc1n[nH]c(-c2nc(-c3ccccc3)c3cccnc3c2O)n1 [Compound 14, 7-(3-Methyl-1H-1,2,4-triazol-5-yl)-5-phenyl-1,6-naphthyridin-8-ol] |  |  | <4.3 | 5.9 | <4.3 | 9.4 | 9.4 | 160 (≈ 48.5 µg/mL) | Ld InMac (pEC50) (L. donovani amastigotes): 5.9
